Where two headings read alike, the source gives them in different places.
Legend:
mTOR = target: T1, mTOR (Homo sapiens, UniProt P42345); assay: mTOR assay (LanthaScreen kinase activity assay); type: biochemical
T1 construct: purchased Invitrogen PV4754

PI3K (p110α/p85α) = target: T2, PI3K (p110α/p85α) (Homo sapiens, UniProt P42336); assay: PI3K activity assay (ADP Hunter Plus); type: biochemical
T2 construct: purchased Carna Biosciences 07CBS-0402A
Procedure, shortened: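 ADP accumulation measured by coupled fluorescence (ex 544/em 580 nm) after a 1 h kinase reaction at 25 °C, then 30 min at 37 °C with detection reagents. Activity normalised to no-compound control (100%) and IC50 from sigmoid dose-response fit.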

[1] = Pharmacokinetic in BALB-c female mice, i.v. and oral; type: in vivo; conditions: for AUC(0-inf) / half-life / clearance / MRT / Vd / bioavailability / Cmax: mouse; for half-life: read-out: T½ last (plasmatic half life) (converted); for clearance: read-out: Cl (plasmatic clearance) (converted); for MRT: read-out: MRT (Mean residence time); for Vd: read-out: Vd (volume of distribution); for bioavailability: read-out: F % (bioavailability); for Cmax: read-out: C max (maximum plasma concentration after oral administration)
Description: Experiments were done using BALB-c female mice, 10 weeks old. Compounds were dissolved in selected vehicles at a concentration calculated in order to administer the dose selected in 0.1 mL. Animals were administered by i.v and oral route (by gavage), and sacrificed at different time points (n=3 at each time point). Time points were 0.08, 0.25, 0.5, 1, 4 and 8 h for the i.v branch, and 0.08, 0.16, 0.25, 0.5, 1, 4, 8 and 24 h for oral branch. Blood was collected and processed for plasma which was analyzed and quantified by means of tandem mass spectrometry coupled with liquid chromatography. Pharmacokinetic parameters were estimated by fitting the experimental data to a compartmental model using Winnonlin software for pharmacokinetic analysis.

PIM-1 = target: T3, PIM-1 (Homo sapiens, UniProt P11309); assay: PIM-1 biochemical assay (ADP Hunter); conditions: PIM1
T3 construct: histidine tag (C); made in house
Procedure, shortened: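 Recombinant His-tagged human PIM-1 (50 pg/μl) with PIMtide peptide (60 μM) and 100 μM ATP in HEPES pH 7.4 buffer with MgCl2, 60 min at 30° C, DMSO below 2%. ADP formed detected by coupled ADP Hunter reaction as resorufin fluorescence (Ex 544/Em 580 nm).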

[2] = read-out: mTOR activity, IC50 (semi-quantitative class)
[3] = read-out: mTOR actual IC50 (in parentheses)
[4] = read-out: PI3K alpha activity, IC50 (semi-quantitative class)
[5] = read-out: PI3K alpha actual IC50 (in parentheses)
[6] = iv, I.V, dose 1.00 mg/Kg, plasma
[7] = plasma, iv, I.V, dose 1.00 mg/Kg
[8] = po, P.O, dose 3.00 mg/Kg, plasma
[9] = read-out: PIM-1 activity, IC50 (semi-quantitative class)
[10] = iv, I.V, dose 5.00 mg/Kg, plasma
[11] = plasma, iv, I.V, dose 5.00 mg/Kg
[12] = plasma, po, P.O dose 10.00 mg/Kg vs I.V 5.00 mg/Kg
[13] = po, P.O, dose 10.00 mg/Kg, plasma

T3 sequence (P11309 whole entry): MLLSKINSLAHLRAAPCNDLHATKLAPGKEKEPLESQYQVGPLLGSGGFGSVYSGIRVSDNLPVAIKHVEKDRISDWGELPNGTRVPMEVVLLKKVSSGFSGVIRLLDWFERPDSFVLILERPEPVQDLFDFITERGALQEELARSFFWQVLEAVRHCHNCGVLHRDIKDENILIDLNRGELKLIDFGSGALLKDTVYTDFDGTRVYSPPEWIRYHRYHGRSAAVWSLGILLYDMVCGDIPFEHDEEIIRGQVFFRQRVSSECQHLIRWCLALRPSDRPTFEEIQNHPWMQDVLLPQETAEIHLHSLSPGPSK
T1 sequence (P42345 1360-2549 limits assumed): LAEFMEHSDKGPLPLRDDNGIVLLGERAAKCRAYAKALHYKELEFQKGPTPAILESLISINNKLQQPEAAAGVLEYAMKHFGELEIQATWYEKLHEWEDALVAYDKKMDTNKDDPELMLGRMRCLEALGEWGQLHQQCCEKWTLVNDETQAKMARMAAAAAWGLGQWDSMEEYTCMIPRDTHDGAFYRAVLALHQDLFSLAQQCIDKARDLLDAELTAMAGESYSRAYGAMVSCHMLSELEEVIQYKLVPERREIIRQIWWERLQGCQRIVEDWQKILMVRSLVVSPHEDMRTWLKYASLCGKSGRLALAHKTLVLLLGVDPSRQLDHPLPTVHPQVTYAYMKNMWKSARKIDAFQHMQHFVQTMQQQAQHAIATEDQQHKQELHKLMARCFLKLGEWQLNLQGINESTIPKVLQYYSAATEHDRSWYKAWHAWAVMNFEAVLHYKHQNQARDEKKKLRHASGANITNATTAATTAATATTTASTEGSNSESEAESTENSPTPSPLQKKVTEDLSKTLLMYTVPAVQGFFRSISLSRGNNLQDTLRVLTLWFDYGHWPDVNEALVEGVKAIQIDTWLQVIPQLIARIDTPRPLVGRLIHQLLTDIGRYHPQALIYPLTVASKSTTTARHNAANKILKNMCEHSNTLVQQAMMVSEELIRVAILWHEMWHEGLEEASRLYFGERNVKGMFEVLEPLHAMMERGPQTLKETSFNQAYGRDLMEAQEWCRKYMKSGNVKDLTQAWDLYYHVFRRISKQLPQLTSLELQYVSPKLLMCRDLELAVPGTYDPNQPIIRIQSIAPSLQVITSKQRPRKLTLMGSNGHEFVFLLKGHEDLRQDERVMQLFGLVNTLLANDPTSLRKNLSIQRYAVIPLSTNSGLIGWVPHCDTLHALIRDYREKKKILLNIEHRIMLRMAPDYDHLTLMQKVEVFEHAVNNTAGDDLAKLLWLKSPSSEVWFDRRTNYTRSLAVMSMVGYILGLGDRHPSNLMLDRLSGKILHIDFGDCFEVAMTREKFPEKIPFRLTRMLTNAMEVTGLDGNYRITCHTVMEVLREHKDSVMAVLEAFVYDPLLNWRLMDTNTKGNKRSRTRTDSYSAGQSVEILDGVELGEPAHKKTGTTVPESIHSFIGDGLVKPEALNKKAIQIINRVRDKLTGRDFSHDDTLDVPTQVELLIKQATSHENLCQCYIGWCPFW
T2 sequence (P42336 whole entry): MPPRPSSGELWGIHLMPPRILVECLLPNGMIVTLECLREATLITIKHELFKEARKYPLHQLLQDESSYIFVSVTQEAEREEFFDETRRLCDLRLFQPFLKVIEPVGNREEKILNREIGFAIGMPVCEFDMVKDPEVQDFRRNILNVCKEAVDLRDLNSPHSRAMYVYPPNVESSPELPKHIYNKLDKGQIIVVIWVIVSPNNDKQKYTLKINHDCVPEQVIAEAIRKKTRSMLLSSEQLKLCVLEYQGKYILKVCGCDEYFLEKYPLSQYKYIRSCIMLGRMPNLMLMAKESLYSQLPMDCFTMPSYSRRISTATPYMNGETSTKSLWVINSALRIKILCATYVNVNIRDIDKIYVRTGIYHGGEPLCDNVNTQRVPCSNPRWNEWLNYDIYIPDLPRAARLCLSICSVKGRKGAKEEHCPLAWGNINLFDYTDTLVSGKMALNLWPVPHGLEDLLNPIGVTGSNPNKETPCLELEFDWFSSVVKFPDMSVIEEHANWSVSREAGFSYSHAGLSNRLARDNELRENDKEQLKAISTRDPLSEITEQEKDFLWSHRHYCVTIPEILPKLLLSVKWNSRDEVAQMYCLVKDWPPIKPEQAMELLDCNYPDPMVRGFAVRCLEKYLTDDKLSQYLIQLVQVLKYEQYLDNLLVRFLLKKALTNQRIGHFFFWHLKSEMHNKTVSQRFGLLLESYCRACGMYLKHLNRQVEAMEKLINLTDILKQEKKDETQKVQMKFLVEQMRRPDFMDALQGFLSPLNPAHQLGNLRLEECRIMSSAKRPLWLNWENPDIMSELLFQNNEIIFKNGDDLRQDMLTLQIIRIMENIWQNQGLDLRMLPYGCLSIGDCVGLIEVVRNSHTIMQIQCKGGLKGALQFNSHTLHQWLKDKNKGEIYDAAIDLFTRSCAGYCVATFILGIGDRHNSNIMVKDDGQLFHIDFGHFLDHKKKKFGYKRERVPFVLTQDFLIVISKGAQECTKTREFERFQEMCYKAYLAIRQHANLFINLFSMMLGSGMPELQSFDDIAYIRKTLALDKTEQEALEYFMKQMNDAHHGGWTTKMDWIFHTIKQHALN
T2 sequence (P27986 whole entry partner): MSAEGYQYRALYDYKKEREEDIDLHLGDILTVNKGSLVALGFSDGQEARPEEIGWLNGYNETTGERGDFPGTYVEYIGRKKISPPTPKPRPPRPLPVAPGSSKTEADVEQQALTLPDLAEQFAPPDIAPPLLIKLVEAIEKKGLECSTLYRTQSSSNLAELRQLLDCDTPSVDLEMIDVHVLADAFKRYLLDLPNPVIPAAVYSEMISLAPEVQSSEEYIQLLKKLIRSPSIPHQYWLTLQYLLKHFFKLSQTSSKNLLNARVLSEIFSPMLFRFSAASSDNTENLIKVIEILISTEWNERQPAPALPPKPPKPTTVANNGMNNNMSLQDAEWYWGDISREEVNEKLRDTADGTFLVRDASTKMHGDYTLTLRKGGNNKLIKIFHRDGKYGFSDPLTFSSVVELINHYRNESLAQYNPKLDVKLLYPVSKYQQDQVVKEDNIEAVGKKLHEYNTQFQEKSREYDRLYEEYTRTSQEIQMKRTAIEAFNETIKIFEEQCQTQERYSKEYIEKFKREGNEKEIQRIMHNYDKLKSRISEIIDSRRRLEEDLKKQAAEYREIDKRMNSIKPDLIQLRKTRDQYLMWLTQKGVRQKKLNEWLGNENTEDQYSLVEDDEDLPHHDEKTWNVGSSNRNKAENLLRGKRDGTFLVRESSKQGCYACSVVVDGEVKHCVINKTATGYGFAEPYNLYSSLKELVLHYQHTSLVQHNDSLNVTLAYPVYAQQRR

Compound: COc1ncc2cc1NS(=O)(=O)c1cccc(c1)C(=O)N1CCc3ccc(cc3C1)-c1ccnc3ccc-2cc13 [compound 39]
- IC50 (mTOR; [2]): < 100 nM
- IC50 (mTOR; [3]): 0.3 nM
- IC50 (PI3K (p110α/p85α); [4]): < 100 nM
- IC50 (PI3K (p110α/p85α); [5]): 0.05 nM
- AUC(0-inf) [1, 6]: 4460 ng·h/mL
- half-life [1, 6]: 1.66 h
- clearance [1, 7]: 4.17 mL/min/kg
- MRT [1, 7]: 2.39 h
- Vd [1, 7]: 0.59 L/kg
- bioavailability ([1]; plasma, po, P.O dose 3.00 mg/Kg vs I.V 1.00 mg/Kg): 26.8%
- AUC(0-inf) [1, 8]: 3580 ng·h/mL
- Cmax [1, 8]: 962 ng/mL
- IC50 (PIM-1; [9]): > 1000 nM

Compound: COc1ncc2cc1NS(=O)(=O)c1cccc(c1)C(=O)NCc1cccc(c1)-c1ccnc3ccc-2cc13 [compound 3]
- IC50 (mTOR; [2]): 100 to 1000 nM
- IC50 (PI3K (p110α/p85α); [4]): < 100 nM
- IC50 (PI3K (p110α/p85α); [5]): 1.6 nM
- AUC(0-inf) [1, 10]: 23700 ng·h/mL
- half-life [1, 10]: 1.41 h
- clearance [1, 11]: 6 mL/min/kg
- MRT [1, 11]: 1.27 h
- Vd [1, 11]: 0.46 L/kg
- bioavailability [1, 12]: 101%
- AUC(0-inf) [1, 13]: 48100 ng·h/mL
- Cmax [1, 13]: 12400 ng/mL
- IC50 (PIM-1; [9]): > 1000 nM

Compound: COc1ncc2cc1NS(=O)(=O)c1cc(c(F)cc1F)C(=O)NCc1cncc(c1)-c1ccnc3ccc-2cc13 [compound 10]
- IC50 (mTOR; [2]): < 100 nM
- IC50 (mTOR; [3]): 22 nM
- IC50 (PI3K (p110α/p85α); [4]): < 100 nM
- IC50 (PI3K (p110α/p85α); [5]): 0.03 nM
- Cl (plasmatic clearance) ([1]; I.V, dose 5.00 mg/Kg): 8.83 mL/min/kg
- AUC inf ([1]; I.V, dose 5.00 mg/Kg, plasma): 9467.60 ng·h/mL
- T½ last (plasmatic half life) ([1]; I.V, dose 5.00 mg/Kg, plasma): 0.57 h
- MRT [1, 11]: 0.53 h
- Vd [1, 11]: 0.28 L/kg
- bioavailability [1, 12]: 39.9%
- AUC(0-inf) [1, 13]: 7560 ng·h/mL
- Cmax [1, 13]: 3390 ng/mL
- IC50 (PIM-1; [9]): > 1000 nM

Compound: COc1ncc2cc1NS(=O)(=O)c1cccc(c1)C(=O)NCC1=CC=C(S1)c1ncnc3c1SC2=C3C [compound 68]
- IC50 (mTOR; [2]): < 100 nM
- IC50 (mTOR; [3]): 90 nM
- IC50 (PI3K (p110α/p85α); [4]): < 100 nM
- IC50 (PI3K (p110α/p85α); [5]): 2.5 nM
- AUC(0-inf) [1, 10]: 16600 ng·h/mL
- half-life [1, 10]: 3.15 h
- clearance [1, 11]: 0.667 mL/min/kg
- MRT [1, 11]: 10.9 h
- Vd [1, 11]: 0.49 L/kg
- bioavailability [1, 12]: 34.5%
- AUC(0-inf) [1, 13]: 57300 ng·h/mL
- Cmax [1, 13]: 2930 ng/mL
- IC50 (PIM-1; [9]): < 100 nM
- IC50 (PIM-1; read-out: PIM-1 actual IC50 (in parentheses)): 28 nM

Compound: COc1ncc2cc1NS(=O)(=O)c1cccc(c1)C(=O)NCc1cncc(c1)-c1ccnc3ccc-2nc13 [compound 31]
- IC50 (mTOR; [2]): < 100 nM
- IC50 (mTOR; [3]): 23 nM
- IC50 (PI3K (p110α/p85α); [4]): < 100 nM
- IC50 (PI3K (p110α/p85α); [5]): 2 nM
- AUC(0-inf) [1, 10]: 8930 ng·h/mL
- half-life [1, 10]: 0.39 h
- clearance [1, 11]: 11.5 mL/min/kg
- MRT [1, 11]: 0.81 h
- Vd [1, 11]: 0.56 L/kg
- bioavailability [1, 12]: 34%
- AUC(0-inf) [1, 13]: 6080 ng·h/mL
- Cmax [1, 13]: 1640 ng/mL
- IC50 (PIM-1; [9]): > 1000 nM

Reference: patent US9808466B2, “Macrocyclic compounds as protein kinase inhibitors” (Fundación Centro Nacional de Investigaciones Oncologicas …, priority 2011, dated 2017)
